For one experiment, the target named is T1, BRD4 BD2 (Homo sapiens, UniProt O60885).
T1 construct: HEK293 cells were transfected using NanoLuc-BRD4-BD1 or NanoLuc-BRD4-BD2 fusion vectors; host or cells: HEK293
The experiment is described as follows: NanoBRET bromodomain assay, BRD4 BD2. It is filed as cell-based. As to conditions: for Fold selectivity BRD4 BD1/BD2: IC50 BD1/IC50 BD2; for IC50: NanoBRET, HEK293 cells transfected with NanoLuc-BRD4-BD2. How it is done: (§1) HEK293 cells were transfected using NanoLuc-BRD4-BD1 or NanoLuc-BRD4-BD2 fusion vectors and incubated at 37° C. in an atmosphere of 5% CO2 for 20-24 hours. The transfected cells were then dispensed into 96-well plates using 90 μl cell suspension per well containing 2×10^5 cells/ml in Opti-MEM and 1x final concentration of tracer. 90 μl per well of cell suspension without tracer was also dispensed into at least 3 wells as “No tracer control samples” for background correction. Serially diluted test compounds were prepared at 1000× concentration in DMSO and further diluted to 10× concentration in Opti-MEM. 10 μl per well of the serially diluted 10× test compound was added to the 96-well plates containing cells with 1x tracer. Plates were then incubated at 37° C.+5% C02 incubator for 2 hours. Immediately prior to BRET measurements, a 3x solution consisting of 1:166 dilution of Nano-Glo® Substrate plus a 1:500 dilution of Extracellular NanoLuc Inhibitor in Opti-MEM was prepared and 50 μl per well was added to the cells. Donor emission (450 nm) and acceptor emission (610 nm) were measured using PHERAstar (BMG LabTech). For data analysis, the raw BRET ratio was generated and converted to milliBRET units with background correction using the formula: [(Acceptorsample/Donorsample)−(Acceptorno tracer control/Donorno tracer control)]×1000. The mBU data was plotted as a function of compound concentration and IC50s for BRET assay were determined by nonlinear regression analysis of concentration response curves using the GraphPad Prism software.
Fold Selectivity Calculated (IC50 BD1/IC50 BD2).
In general terms: In BRET a luciferase serves as donor, and the signal depends on an acceptor being close.

For another experiment, the target named is T2, BRD4 BD1 (Homo sapiens, UniProt O60885).
T2 construct: HEK293 cells were transfected using NanoLuc-BRD4-BD1 or NanoLuc-BRD4-BD2 fusion vectors; host or cells: HEK293
The experiment in a line: NanoBRET bromodomain assay, BRD4 BD1. It is filed as cell-based. As to conditions: HEK293 cells transfected with NanoLuc-BRD4-BD1. As for the experimental part:
as §1

As to `CC#Cc1cn(C)c(=O)cc1-c1cn(C)c(=O)c2[nH]c(-c3cc(C)nc(C)c3)cc12` [Example 58, 4-[2-(2,6-dimethylpyridin-4-yl)-6-methyl-7-oxo-1H-pyrrolo[2,3-c]pyridin-4-yl]-1-methyl-5-(prop-1-yn-1-yl)pyridin-2-one], on BRD4 BD2, the “Fold selectivity BRD4 BD1/BD2” value was “xxx (Fold >200)”. The IC50 is ≤ 50 nM at BRD4 BD2 and > 1000 nM against BRD4 BD1.

With `Cc1cc(-c2cc3c(-c4cc(=O)n(C)cc4C4CCCC4)cn(C)c(=O)c3[nH]2)n(C)n1` [Example 52, 5-cyclopentyl-4-[2-(2,5-dimethylpyrazol-3-yl)-6-methyl-7-oxo-1H-pyrrolo[2,3-c]pyridin-4-yl]-1-methylpyridin-2-one], on BRD4 BD2, the “Fold selectivity BRD4 BD1/BD2” value was “x (Fold >2 and ≤50)”; the IC50 was ≤ 50 nM. Further, the IC50 at BRD4 BD1 was in the range of 50 to 500 nM.

Consider `Cc1cccc(C)c1Oc1cn(C2CNC2)c(=O)cc1-c1cn(C)c(=O)c2[nH]c(-c3cnn(C(C)C)c3C)cc12` [Example 43, 4-(1-(azetidin-3-yl)-5-(2,6-dimethylphenoxy)-2-oxo-1,2-dihydropyridin-4-yl)-2-(1-isopropyl-5-methyl-1H-pyrazol-4-yl)-6-methyl-1,6-dihydro-7H-pyrrolo[2,3-c] pyridin-7-one], for which, at BRD4 BD2, the “Fold selectivity BRD4 BD1/BD2” value is “x (Fold >2 and ≤50)”; the IC50 was > 1000 nM. In addition, the IC50 on BRD4 BD1 was > 1000 nM.

Regarding `Cc1cccc(C)c1Oc1cn(C2COC2)c(=O)cc1-c1cn(C)c(=O)c2[nH]c(-c3cnn(C)c3C)cc12` [Example 40, 2-(1,5-dimethyl-1H-pyrazol-4-yl)-4-(5-(2,6-dimethylphenoxy)-1-(oxetan-3-yl)-2-oxo-1,2-dihydropyridin-4-yl)-6-methyl-1,6-dihydro-7H-pyrrolo[2,3-c] pyridin-7-one], at BRD4 BD2, the “Fold selectivity BRD4 BD1/BD2” value was “x (Fold >2 and ≤50)”; the IC50 was ≤ 50 nM. This molecule also yielded an IC50 on BRD4 BD1 of 50 to 500 nM.

`Cc1cccc(C)c1Oc1cn(C)c(=O)cc1-c1cn(C)c(=O)c2[nH]c(-c3ccccc3C#N)cc12` [Example 48, 2-{4-[5-(2,6-dimethylphenoxy)-1-methyl-2-oxopyridin-4-yl]-6-methyl-7-oxo-1H-pyrrolo[2,3-c]pyridin-2-yl}benzonitrile]: on BRD4 BD2, the “Fold selectivity BRD4 BD1/BD2” value is “xxx (Fold >200)” and the IC50 was ≤ 50 nM. For the same molecule, on BRD4 BD1, the IC50 is > 1000 nM.

As for `Cc1cccc(C)c1Oc1cn(C)c(=O)cc1-c1cn(C)c(=O)c2[nH]c(-c3cc(F)ccc3F)cc12` [Example 46, 2-(2,5-difluorophenyl)-4-(5-(2,6-dimethylphenoxy)-1-methyl-2-oxo-1,2-dihydropyridin-4-yl)-6-methyl-1,6-dihydro-7H-pyrrolo[2,3-c]pyridin-7-one], on BRD4 BD2, the “Fold selectivity BRD4 BD1/BD2” value is “xxx (Fold >200)” and the IC50 is ≤ 50 nM. The IC50 at BRD4 BD1 was > 1000 nM.

Turning to `Cc1cccc(C)c1Oc1cn(C)c(=O)cc1-c1cn(C)c(=O)c2[nH]c(-c3ncccn3)cc12` [Example 39, 4-(5-(2,6-dimethylphenoxy)-1-methyl-2-oxo-1,2-dihydropyridin-4-yl)-6-methyl-2-(pyrimidin-2-yl)-1,6-dihydro-7H-pyrrolo[2,3-c] pyridin-7-one], on BRD4 BD2, the “Fold selectivity BRD4 BD1/BD2” value is “xx (Fold >50 and ≤200)”; the IC50 was in the range of 50 to 200 nM. Further, on BRD4 BD1, the concentration for half-maximal inhibition (IC50) is > 1000 nM.

`C#Cc1cn(C)c(=O)cc1-c1cn(C)c(=O)c2[nH]c(-c3cnn(C(C)C)c3)cc12` [Example 56, 5-ethynyl-4-[2-(1-isopropylpyrazol-4-yl)-6-methyl-7-oxo-1H-pyrrolo[2,3-c]pyridin-4-yl]-1-methylpyridin-2-one]: the “Fold selectivity BRD4 BD1/BD2” value at BRD4 BD2 was “x (Fold >2 and ≤50)”. Further, the IC50 was ≤ 50 nM against BRD4 BD2 and 50 to 500 nM against BRD4 BD1.

`Cc1cccc(C)c1Oc1cn(C)c(=O)cc1-c1cn(C)c(=O)c2[nH]c(-c3c(F)cccc3F)cc12` [Example 37, 2-(2,6-difluorophenyl)-4-(5-(2,6-dimethylphenoxy)-1-methyl-2-oxo-1,2-dihydropyridin-4-yl)-6-methyl-1,6-dihydro-7H-pyrrolo[2,3-c] pyridin-7-one]: on BRD4 BD2, the “Fold selectivity BRD4 BD1/BD2” value was “xx (Fold >50 and ≤200)”; the IC50 fell in the range of 50 to 200 nM. Besides, the IC50 against BRD4 BD1 is > 1000 nM.

With `Cc1cccc(C)c1Oc1cn(C)c(=O)cc1-c1cn(C)c(=O)c2[nH]c(-c3ccnnc3)cc12` [Example 27, 4-(5-(2,6-dimethylphenoxy)-1-methyl-2-oxo-1,2-dihydropyridin-4-yl)-6-methyl-2-(pyridazin-4-yl)-1,6-dihydro-7H-pyrrolo[2,3-c] pyridin-7-one], at BRD4 BD2, the “Fold selectivity BRD4 BD1/BD2” value was “xx (Fold >50 and ≤200)”; the IC50 was in the range of 50 to 200 nM. Besides, at BRD4 BD1, the IC50 was > 1000 nM.

Regarding `Cc1cccc(C)c1Oc1cn(C2COC2)c(=O)cc1-c1cn(C)c(=O)c2[nH]c(-c3ccccc3F)cc12` [Example 41, 4-(5-(2,6-dimethylphenoxy)-1-(oxetan-3-yl)-2-oxo-1,2-dihydropyridin-4-yl)-2-(2-fluorophenyl)-6-methyl-1,6-dihydro-7H-pyrrolo[2,3-c] pyridin-7-one], at BRD4 BD2, the “Fold selectivity BRD4 BD1/BD2” value was “xx (Fold >50 and ≤200)”; the IC50 lay in the range of 50 to 200 nM. Also, the IC50 against BRD4 BD1 was > 1000 nM.

With `Cc1cccc(C)c1Oc1cn(C)c(=O)cc1-c1cn(C)c(=O)c2[nH]c(-c3cc(C(F)(F)F)ccc3F)cc12` [Example 34, 4-(5-(2,6-dimethylphenoxy)-1-methyl-2-oxo-1,2-dihydropyridin-4-yl)-2-(2-fluoro-5-(trifluoromethyl)phenyl)-6-methyl-1,6-dihydro-7H-pyrrolo[2,3-c] pyridin-7-one], the “Fold selectivity BRD4 BD1/BD2” value at BRD4 BD2 is “xxx (Fold >200)”. Further, the IC50 against BRD4 BD2 was ≤ 50 nM; against BRD4 BD1, > 1000 nM.

For the molecule `Cc1cccc(C)c1Oc1cn(C)c(=O)cc1-c1cn(C)c(=O)c2[nH]c(-c3cnn(CS(C)(=O)=O)c3)cc12` [Example 65, 4-(5-(2,6-dimethylphenoxy)-1-methyl-2-oxo-1,2-dihydropyridin-4-yl)-6-methyl-2-(1-((methylsulfonyl)methyl)-1H-pyrazol-4-yl)-1,6-dihydro-7H-pyrrolo[2,3-c]pyridin-7-one], at BRD4 BD2, the “Fold selectivity BRD4 BD1/BD2” value is “x (Fold >2 and ≤50)”; the IC50 is ≤ 50 nM. Besides, the IC50 at BRD4 BD1 was > 1000 nM.

As for `Cn1cc(C2CCCC2)c(-c2cn(C)c(=O)c3[nH]c(-c4ccccc4)cc23)cc1=O` [Example 55, 5-cyclopentyl-1-methyl-4-{6-methyl-7-oxo-2-phenyl-1H-pyrrolo[2,3-c]pyridin-4-yl}pyridin-2-one], the “Fold selectivity BRD4 BD1/BD2” value at BRD4 BD2 is “x (Fold >2 and ≤50)”. For the same molecule, the half-maximal inhibitory concentration (IC50) is ≤ 50 nM on BRD4 BD2 and 50 to 500 nM on BRD4 BD1.

Take `CC(C)n1cc(-c2cc3c(-c4cc(=O)n(C)cc4C4CCCC4)cn(C)c(=O)c3[nH]2)cn1` [Example 53, 4-(5-cyclopentyl-1-methyl-2-oxo-1,2-dihydropyridin-4-yl)-2-(1-isopropyl-1H-pyrazol-4-yl)-6-methyl-1,6-dihydro-7H-pyrrolo[2,3-c]pyridin-7-one]: at BRD4 BD2, the “Fold selectivity BRD4 BD1/BD2” value was “xx (Fold >50 and ≤200)”. Moreover, the IC50 was ≤ 50 nM on BRD4 BD2 and 50 to 500 nM at BRD4 BD1.

As for `Cc1cc(-c2cc3c(-c4cc(=O)n(C)cc4Oc4c(C)cccc4C)cn(C)c(=O)c3[nH]2)ccn1` [Example 45, 4-(5-(2,6-dimethylphenoxy)-1-methyl-2-oxo-1,2-dihydropyridin-4-yl)-6-methyl-2-(2-methylpyridin-4-yl)-1,6-dihydro-7H-pyrrolo[2,3-c]pyridin-7-one], the “Fold selectivity BRD4 BD1/BD2” value at BRD4 BD2 is “x (Fold >2 and ≤50)”. The IC50 was ≤ 50 nM at BRD4 BD2 and 500 to 1000 nM at BRD4 BD1.

As for `CC#Cc1cn(C)c(=O)cc1-c1cn(C)c(=O)c2[nH]c(-c3cnn(C(C)C)c3)cc12` [Example 57, 4-[2-(1-isopropylpyrazol-4-yl)-6-methyl-7-oxo-1H-pyrrolo[2,3-c]pyridin-4-yl]-1-methyl-5-(prop-1-yn-1-yl)pyridin-2-one], on BRD4 BD2, the “Fold selectivity BRD4 BD1/BD2” value was “x (Fold >2 and ≤50)”. In addition, the IC50 is ≤ 50 nM against BRD4 BD2 and 50 to 500 nM on BRD4 BD1.

As for `Cc1cc(-c2cc3c(-c4cc(=O)n(C)cc4Oc4c(C)cccc4C)cn(C)c(=O)c3[nH]2)ncn1` [Example 38, 4-(5-(2,6-dimethylphenoxy)-1-methyl-2-oxo-1,2-dihydropyridin-4-yl)-6-methyl-2-(6-methylpyrimidin-4-yl)-1,6-dihydro-7H-pyrrolo[2,3-c] pyridin-7-one], at BRD4 BD2, the “Fold selectivity BRD4 BD1/BD2” value is “xxx (Fold >200)” and the IC50 was ≤ 50 nM. Besides, the half-maximal inhibitory concentration (IC50) against BRD4 BD1 is > 1000 nM.

As to `Cc1cc(-c2cc3c(-c4cc(=O)n(C)cc4C4CCCC4)cn(C)c(=O)c3[nH]2)cc(C)n1` [Example 54, 5-cyclopentyl-4-[2-(2,6-dimethylpyridin-4-yl)-6-methyl-7-oxo-1H-pyrrolo[2,3-c]pyridin-4-yl]-1-methylpyridin-2-one], on BRD4 BD2, the “Fold selectivity BRD4 BD1/BD2” value was “xx (Fold >50 and ≤200)”; the IC50 was ≤ 50 nM. At BRD4 BD1, this molecule had an IC50 of 50 to 500 nM.

For orientation: IC50 means the point on the concentration scale where inhibition reaches its midpoint.

Values taken from patent publication US20240308998A1, “PYRROLOPYRIDONE DERIVATIVES USEFUL IN THE TREATMENT OF CANCER” (Tay Therapeutics Limited, priority 2021, published 2024).
